ChEMBL document CHEMBL1833850, “Thailandepsins: bacterial products with potent histone deacetylase inhibitory activities and broad-spectrum antiproliferative activities” (J Nat Prod, 2011)

Tests used:
[1] = target: Histone deacetylase 1/Nuclear receptor corepressor 2 (Homo sapiens, UniProt Q13547); assay: Inhibition of recombinant human HDAC1/NCOR2 using Boc-L-Lys(epsilon-acetyl)-AMC as substrate by two-step fluorogenic assay; type: protein-complex assay
Histone deacetylase 9 = Histone deacetylase 9 (Homo sapiens, UniProt Q9UKV0)
Histone deacetylase 7 = target: T1, Histone deacetylase 7 (Homo sapiens, UniProt Q8WUI4)
T1 sequence (Q8WUI4 whole entry): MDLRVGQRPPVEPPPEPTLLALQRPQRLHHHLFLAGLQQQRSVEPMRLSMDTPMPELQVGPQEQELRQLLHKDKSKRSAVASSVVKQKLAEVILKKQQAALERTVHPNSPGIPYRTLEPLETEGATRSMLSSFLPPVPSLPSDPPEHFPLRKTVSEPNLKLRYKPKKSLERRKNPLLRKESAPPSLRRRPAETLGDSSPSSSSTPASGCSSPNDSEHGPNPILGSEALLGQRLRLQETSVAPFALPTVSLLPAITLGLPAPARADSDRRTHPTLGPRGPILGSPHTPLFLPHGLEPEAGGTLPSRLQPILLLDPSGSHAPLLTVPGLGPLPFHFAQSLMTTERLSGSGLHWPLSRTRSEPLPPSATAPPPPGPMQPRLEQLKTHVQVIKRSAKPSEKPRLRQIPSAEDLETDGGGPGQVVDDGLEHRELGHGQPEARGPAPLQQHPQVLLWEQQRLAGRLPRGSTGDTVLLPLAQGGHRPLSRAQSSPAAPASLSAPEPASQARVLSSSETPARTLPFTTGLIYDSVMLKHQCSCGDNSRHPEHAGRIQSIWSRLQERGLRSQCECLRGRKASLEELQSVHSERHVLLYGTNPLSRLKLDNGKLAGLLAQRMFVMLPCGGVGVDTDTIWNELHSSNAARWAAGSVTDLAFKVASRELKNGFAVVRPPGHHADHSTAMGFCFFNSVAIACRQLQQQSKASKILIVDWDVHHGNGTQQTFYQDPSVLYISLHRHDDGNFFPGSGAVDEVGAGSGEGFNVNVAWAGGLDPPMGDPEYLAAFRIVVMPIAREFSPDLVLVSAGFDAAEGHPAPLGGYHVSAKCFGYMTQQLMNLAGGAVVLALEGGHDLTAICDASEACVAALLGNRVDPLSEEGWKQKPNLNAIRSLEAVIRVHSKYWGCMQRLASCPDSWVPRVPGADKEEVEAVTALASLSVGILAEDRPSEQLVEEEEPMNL
Description: Inhibition of recombinant human HDAC7 using Boc-L-Lys(epsilon-trifluoroacetyl)-AMC as substrate by two-step fluorogenic assay

Histone deacetylase 4 = Histone deacetylase 4 (Homo sapiens, UniProt P56524)
Histone deacetylase 8 = target: T2, Histone deacetylase 8 (Homo sapiens, UniProt Q9BY41)
T2 sequence (Q9BY41 whole entry): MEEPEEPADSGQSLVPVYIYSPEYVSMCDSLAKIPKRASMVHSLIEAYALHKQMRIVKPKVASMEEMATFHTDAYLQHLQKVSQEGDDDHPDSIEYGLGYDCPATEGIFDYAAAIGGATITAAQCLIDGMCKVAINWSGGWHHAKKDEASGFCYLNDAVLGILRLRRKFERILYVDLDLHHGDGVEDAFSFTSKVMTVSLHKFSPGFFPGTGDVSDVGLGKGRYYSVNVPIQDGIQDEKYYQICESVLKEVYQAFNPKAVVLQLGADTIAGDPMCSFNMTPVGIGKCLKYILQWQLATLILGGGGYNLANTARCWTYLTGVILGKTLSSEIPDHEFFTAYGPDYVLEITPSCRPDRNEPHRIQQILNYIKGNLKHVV

[2] = target: Histone deacetylase 2/Nuclear receptor corepressor 2 (Homo sapiens, UniProt Q92769); assay: Inhibition of recombinant human HDAC2/NCOR2 using Boc-L-Lys(epsilon-acetyl)-AMC as substrate by two-step fluorogenic assay; type: protein-complex assay
[3] = target: Histone deacetylase 3/Nuclear receptor corepressor 2 (HDAC3/NCoR2) (Homo sapiens, UniProt O15379); type: protein-complex assay
[4] = target: T3, Protein deacetylase HDAC6 (Homo sapiens, UniProt Q9UBN7); assay: Inhibition of recombinant human HDAC6 using Boc-L-Lys(epsilon-acetyl)-AMC as substrate by two-step fluorogenic assay
T3 sequence (Q9UBN7 whole entry): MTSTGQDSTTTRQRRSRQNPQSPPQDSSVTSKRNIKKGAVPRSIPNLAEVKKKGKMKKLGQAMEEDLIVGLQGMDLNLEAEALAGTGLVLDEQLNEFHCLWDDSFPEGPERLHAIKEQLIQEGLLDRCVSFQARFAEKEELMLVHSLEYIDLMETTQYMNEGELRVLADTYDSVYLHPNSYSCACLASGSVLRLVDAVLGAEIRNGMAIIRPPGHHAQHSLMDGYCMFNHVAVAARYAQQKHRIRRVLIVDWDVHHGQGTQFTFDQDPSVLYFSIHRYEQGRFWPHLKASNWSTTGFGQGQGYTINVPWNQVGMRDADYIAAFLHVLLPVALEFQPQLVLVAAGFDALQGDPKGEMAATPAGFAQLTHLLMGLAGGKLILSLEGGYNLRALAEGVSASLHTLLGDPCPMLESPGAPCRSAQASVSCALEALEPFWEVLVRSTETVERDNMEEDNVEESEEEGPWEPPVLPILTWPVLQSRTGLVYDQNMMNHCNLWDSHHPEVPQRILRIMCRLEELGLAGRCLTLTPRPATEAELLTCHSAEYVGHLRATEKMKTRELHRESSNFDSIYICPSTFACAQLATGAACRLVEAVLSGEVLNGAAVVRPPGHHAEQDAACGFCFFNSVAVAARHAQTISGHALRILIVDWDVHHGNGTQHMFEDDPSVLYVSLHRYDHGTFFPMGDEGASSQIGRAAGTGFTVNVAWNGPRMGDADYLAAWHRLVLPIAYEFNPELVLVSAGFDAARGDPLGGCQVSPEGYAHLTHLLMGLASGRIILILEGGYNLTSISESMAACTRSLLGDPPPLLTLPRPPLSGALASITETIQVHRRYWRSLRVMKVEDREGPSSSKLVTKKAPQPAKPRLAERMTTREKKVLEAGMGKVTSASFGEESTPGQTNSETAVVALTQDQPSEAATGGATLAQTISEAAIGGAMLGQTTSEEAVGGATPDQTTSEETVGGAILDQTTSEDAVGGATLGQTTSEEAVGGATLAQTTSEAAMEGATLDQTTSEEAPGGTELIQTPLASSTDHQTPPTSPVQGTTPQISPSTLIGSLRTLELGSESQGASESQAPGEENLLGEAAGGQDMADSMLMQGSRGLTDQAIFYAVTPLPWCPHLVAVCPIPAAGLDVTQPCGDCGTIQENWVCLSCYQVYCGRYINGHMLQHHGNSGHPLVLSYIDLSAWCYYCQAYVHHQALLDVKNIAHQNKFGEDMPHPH

Sequence of Histone deacetylase 1/Nuclear receptor corepressor 2 (Q13547 whole entry): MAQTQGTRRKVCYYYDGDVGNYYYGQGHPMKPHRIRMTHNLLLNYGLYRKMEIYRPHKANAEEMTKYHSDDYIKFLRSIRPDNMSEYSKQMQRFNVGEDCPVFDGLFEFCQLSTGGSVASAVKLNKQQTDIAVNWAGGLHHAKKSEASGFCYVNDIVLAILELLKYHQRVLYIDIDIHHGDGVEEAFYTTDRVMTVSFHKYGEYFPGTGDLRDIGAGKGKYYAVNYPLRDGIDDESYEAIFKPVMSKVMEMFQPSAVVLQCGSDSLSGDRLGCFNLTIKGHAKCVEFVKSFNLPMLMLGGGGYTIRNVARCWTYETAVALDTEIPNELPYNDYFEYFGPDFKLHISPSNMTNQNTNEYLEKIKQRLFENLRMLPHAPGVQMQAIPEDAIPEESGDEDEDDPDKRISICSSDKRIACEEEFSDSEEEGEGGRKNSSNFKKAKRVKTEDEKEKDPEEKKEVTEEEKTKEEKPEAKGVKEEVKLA
Sequence of Histone deacetylase 1/Nuclear receptor corepressor 2 (Q9Y618 whole entry, further chain): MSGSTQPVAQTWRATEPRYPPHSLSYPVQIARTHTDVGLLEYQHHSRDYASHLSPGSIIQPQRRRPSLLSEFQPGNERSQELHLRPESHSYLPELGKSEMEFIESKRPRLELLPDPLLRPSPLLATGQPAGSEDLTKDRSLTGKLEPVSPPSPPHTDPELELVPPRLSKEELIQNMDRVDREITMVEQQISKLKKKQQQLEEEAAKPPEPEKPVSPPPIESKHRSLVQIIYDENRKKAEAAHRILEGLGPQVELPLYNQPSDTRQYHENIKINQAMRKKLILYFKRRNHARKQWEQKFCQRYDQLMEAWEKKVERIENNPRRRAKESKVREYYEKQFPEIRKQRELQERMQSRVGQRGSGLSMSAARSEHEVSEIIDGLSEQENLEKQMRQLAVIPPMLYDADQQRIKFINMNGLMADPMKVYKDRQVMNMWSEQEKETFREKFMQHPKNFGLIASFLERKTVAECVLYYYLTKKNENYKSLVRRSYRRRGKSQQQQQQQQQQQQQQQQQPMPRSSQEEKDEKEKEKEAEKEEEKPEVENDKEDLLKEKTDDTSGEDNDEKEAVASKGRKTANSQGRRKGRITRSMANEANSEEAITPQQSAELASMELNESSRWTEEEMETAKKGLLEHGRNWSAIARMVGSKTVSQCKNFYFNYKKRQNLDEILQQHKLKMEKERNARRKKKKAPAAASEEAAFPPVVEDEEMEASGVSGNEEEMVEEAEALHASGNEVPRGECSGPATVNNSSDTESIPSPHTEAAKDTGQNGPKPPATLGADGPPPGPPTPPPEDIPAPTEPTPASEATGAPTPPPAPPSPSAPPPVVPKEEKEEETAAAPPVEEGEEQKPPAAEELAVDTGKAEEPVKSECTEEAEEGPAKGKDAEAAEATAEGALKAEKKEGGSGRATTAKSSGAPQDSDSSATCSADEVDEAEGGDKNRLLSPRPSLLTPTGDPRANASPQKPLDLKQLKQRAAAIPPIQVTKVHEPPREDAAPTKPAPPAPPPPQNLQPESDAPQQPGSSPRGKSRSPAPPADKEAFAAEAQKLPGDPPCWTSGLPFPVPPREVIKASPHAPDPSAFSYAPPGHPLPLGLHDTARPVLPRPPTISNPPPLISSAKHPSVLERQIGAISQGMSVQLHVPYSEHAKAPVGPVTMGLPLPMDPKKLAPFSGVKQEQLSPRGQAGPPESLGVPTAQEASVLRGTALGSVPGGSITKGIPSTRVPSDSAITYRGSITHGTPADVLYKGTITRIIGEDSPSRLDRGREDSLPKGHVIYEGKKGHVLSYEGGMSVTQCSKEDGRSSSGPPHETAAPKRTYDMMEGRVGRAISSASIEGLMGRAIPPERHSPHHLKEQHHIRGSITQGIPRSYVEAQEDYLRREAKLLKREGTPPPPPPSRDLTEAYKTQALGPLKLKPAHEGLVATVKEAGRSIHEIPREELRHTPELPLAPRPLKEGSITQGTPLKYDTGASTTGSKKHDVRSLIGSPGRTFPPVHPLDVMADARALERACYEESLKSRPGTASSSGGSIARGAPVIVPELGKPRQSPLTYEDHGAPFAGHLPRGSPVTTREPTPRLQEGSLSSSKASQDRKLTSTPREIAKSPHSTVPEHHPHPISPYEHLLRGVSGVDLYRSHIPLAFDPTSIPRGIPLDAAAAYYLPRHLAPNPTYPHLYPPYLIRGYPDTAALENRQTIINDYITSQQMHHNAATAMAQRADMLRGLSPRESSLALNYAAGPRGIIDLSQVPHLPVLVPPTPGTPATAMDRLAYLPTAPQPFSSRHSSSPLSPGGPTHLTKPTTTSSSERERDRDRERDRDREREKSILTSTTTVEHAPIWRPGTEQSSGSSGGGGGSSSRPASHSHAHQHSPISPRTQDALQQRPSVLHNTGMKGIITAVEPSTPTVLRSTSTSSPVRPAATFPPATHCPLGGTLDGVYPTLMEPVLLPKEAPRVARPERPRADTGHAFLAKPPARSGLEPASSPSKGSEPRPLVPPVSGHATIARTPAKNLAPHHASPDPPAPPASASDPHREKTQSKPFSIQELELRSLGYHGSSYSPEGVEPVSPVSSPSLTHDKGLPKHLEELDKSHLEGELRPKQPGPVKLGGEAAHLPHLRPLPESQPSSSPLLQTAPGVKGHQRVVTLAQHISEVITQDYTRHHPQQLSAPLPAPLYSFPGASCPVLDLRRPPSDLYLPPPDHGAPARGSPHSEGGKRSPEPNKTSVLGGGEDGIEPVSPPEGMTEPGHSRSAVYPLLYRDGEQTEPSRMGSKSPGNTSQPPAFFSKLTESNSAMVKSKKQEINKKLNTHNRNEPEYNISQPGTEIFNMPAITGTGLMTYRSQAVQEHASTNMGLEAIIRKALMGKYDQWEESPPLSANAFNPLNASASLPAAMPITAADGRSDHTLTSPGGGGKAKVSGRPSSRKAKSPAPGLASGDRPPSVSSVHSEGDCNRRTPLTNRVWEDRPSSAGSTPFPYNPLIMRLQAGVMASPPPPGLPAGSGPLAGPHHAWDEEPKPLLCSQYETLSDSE
Sequence of Histone deacetylase 4 (P56524 whole entry): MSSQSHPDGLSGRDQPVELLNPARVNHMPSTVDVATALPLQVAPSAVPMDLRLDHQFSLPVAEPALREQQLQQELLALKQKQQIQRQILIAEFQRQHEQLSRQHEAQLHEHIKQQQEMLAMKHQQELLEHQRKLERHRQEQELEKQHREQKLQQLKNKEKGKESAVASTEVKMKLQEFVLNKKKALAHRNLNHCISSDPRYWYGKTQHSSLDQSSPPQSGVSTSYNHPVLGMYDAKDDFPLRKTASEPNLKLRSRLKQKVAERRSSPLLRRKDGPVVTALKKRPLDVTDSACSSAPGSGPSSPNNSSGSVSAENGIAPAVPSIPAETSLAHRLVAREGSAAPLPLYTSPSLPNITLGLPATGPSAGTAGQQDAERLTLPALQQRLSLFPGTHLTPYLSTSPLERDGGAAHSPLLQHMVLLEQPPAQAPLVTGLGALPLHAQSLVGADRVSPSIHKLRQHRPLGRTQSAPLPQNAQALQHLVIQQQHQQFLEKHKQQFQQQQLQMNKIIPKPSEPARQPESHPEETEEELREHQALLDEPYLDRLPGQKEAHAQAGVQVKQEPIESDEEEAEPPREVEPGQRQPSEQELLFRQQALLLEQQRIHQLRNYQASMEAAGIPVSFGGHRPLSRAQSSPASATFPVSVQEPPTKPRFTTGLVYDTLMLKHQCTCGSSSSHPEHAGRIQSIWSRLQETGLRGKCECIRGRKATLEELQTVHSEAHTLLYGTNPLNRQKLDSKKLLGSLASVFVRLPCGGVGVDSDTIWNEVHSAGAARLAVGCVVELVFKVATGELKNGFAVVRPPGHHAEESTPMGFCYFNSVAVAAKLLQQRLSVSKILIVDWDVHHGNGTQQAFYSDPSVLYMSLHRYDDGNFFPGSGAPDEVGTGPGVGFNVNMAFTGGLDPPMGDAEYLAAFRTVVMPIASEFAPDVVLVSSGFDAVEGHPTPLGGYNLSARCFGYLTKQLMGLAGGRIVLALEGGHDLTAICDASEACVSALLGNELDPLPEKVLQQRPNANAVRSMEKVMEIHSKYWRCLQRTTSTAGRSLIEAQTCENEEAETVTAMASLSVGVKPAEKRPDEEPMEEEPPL
Sequence of Histone deacetylase 9 (Q9UKV0 whole entry): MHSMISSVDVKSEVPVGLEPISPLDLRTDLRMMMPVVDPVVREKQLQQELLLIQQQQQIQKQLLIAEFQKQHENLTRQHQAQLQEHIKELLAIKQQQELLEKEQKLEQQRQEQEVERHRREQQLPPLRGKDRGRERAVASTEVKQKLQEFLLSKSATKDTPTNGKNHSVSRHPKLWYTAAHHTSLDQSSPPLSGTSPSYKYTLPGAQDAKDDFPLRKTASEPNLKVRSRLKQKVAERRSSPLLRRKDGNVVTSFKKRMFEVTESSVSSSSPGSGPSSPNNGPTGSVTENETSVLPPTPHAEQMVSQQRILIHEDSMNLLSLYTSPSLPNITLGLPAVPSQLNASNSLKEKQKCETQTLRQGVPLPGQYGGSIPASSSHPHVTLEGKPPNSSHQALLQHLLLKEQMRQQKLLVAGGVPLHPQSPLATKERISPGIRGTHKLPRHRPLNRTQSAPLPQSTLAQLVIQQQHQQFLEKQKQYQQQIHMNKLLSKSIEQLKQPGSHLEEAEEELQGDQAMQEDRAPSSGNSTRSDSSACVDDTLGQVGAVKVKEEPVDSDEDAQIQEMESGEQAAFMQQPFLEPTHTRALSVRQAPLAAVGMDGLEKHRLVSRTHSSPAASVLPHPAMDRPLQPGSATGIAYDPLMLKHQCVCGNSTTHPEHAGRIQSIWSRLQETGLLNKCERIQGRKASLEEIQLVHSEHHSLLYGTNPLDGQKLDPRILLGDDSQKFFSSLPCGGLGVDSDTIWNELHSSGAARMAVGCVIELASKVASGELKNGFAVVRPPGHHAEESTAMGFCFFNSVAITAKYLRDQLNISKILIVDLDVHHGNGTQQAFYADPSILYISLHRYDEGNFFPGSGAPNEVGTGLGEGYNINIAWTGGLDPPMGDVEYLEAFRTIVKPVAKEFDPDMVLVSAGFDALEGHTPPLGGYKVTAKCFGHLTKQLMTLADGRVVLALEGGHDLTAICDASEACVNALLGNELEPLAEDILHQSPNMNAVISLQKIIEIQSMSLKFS

For `C/C=C1\NC(=O)[C@H]2CSSCC/C=C/[C@H](CC(=O)N[C@H](C(C)C)C(=O)N2)OC(=O)[C@H](C(C)C)NC1=O` [ROMIDEPSIN], the IC50 [1] was 6.7 µM, the IC50 (Histone deacetylase 9) was > 50 µM and the IC50 (Histone deacetylase 7) was > 50 µM. The IC50 (Histone deacetylase 4) was > 50 µM.

For `CC[C@H](C)[C@H]1NC(=O)[C@H]2CSSCC/C=C/[C@H](CC(=O)N[C@H](CCSC)C(=O)N2)OC(=O)C[C@@H]1O` [THAILANDEPSIN A], the IC50 [1] was 7.5 µM, the IC50 (Histone deacetylase 8) was > 50 µM and the IC50 [2] was 39 µM. The IC50 (Histone deacetylase 9) was > 50 µM, the IC50 (Histone deacetylase 7) was > 50 µM and the IC50 [3] was 0.087 µM. For the same compound, the IC50 (Histone deacetylase 4) was > 50 µM and the IC50 [4] was 9.9 µM.

With `CCCC[C@H]1NC(=O)C[C@H]2/C=C/CCSSC[C@@H](NC1=O)C(=O)N[C@H]([C@@H](C)CC)[C@@H](O)CC(=O)O2` [THAILANDEPSIN B] the IC50 [1] was 7.7 µM, the IC50 (Histone deacetylase 8) was 30 µM and the IC50 [2] was 4.5 µM. For the same compound, the IC50 (Histone deacetylase 9) was > 50 µM, the IC50 [3] was 0.023 µM and the IC50 (Histone deacetylase 4) was 22 µM. The IC50 [4] was 11 µM.
